Source: patent US20260285853A1, “COMPOUNDS AND METHODS FOR MODULATING SPLICING” (REMIX THERAPEUTICS INC., priority 2023, published 2026)

Experiments:
Format in all cases: cell-based
[1] = tested on: MYB mRNA; test: Splicing RT-qPCR assay, canonical (CJ) and alternative (AJ) junction mRNA, K562 cells; settings: Homo sapiens, K562.3 cells, 24 hours; for AC50: read-out: MYB AJ (AC50, increase in AJ mRNA); for IC50: read-out: MYB CJ (IC50, decrease in CJ mRNA)
Method in brief: (§1)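 RT-qPCR read-out: CJ and AJ isoforms quantified by ΔCt against GAPDH or GUSB, normalized to DMSO, and converted to % response. Windows in 96-well format (50,000 cells/well) were 4.0 ΔCt for MYB-CJ and 3 for MYB-AJ, and 3.5 ΔCt for HTT-CJ and 9 for HTT-AJ. Cells were dosed for 24 h, top 10 uM.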

[2] = tested on: HTT mRNA; test: as above; settings: Homo sapiens, K562.3 cells, 24 hours; for AC50: read-out: HTT AJ (AC50, increase in AJ mRNA); for IC50: read-out: HTT CJ (IC50, decrease in CJ mRNA)
Method in brief: as §1

[3] = tested on: HTT mRNA; test: Splicing RT-qPCR assay (THP), Table 2A; settings: Table 2A (THP); for AC50: AJ mRNA increase, read-out: HTT AJ (increase in alternative junction mRNA, AC50); for IC50: CJ mRNA decrease, read-out: HTT CJ (decrease in canonical junction mRNA, IC50)
[4] = tested on: MYB mRNA; test: Splicing RT-qPCR assay (THP), Table 2A; settings: Table 2A (THP); for AC50: AJ mRNA increase, read-out: MYB AJ (increase in alternative junction mRNA, AC50); for IC50: CJ mRNA decrease, read-out: MYB CJ (decrease in canonical junction mRNA, IC50)
[5] = tested on: SH-SY5Y (human neuroblastoma) cells; test: Cell viability, Cell Titer Glo 2.0 assay; settings: read-out: Viability SHSY5Y.3 GI50
Method in brief: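 CellTiter-Glo 2.0 luminescence read-out after 72 h compound exposure (37 °C, 5% CO2); medium-only wells as blank. DMSO 0.1% final.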

Row | SMILES | AC50 [1] | IC50 [1] | AC50 [2] | IC50 [2] | AC50 [3] | IC50 [3] | AC50 [4] | IC50 [4] | GI50 [5]
1 | Cc1cn2cc(NC(=O)c3ccc(N4C[C@@H](C)N[C@@H](C)C4)c4nnn(C)c34)cc(F)c2n1 [Compound 261, 7-[(3R,5S)-3,5-dimethylpiperazin-1-yl]-N-(8-fluoro-2-methyl-imidazo[1,2-a]pyridin-6-yl)-3-methyl-benzotriazole-4-carboxamide] | > 10000 nM | > 10000 nM | > 10000 nM | > 10000 nM | > 10000 nM | > 10000 nM | > 10000 nM | > 10000 nM | > 10000 nM
2 | CCNC1CCN(c2ccc(C(=O)Nc3cc(F)c4nn(C)cc4c3)c3nn(C)cc23)CC1 [Compound 182, 4-(4-(ethylamino)piperidin-1-yl)-N-(7-fluoro-2-methyl-2H-indazol-5-yl)-2-methyl-2H-indazole-7-carboxamide] | 100 to 1000 nM | < 100 nM | 1000 to 10000 nM | 1000 to 10000 nM | 1000 to 10000 nM | 1000 to 10000 nM | < 100 nM | < 100 nM | 100 to 1000 nM
3 | COCCN[C@@H]1CCN(c2cc(O)c(C(=O)Nc3cc(F)c4nc(C)cn4c3)c3nn(C)cc23)C1 [Compound 285, N-(8-fluoro-2-methyl-imidazo[1,2-a]pyridin-6-yl)-6-hydroxy-4-[(3R)-3-(2-methoxyethylamino)pyrrolidin-1-yl]-2-methyl-indazole-7-carboxamide] | < 100 nM | < 100 nM | > 10000 nM | > 10000 nM | > 10000 nM | > 10000 nM | < 100 nM | < 100 nM | 1000 to 10000 nM
4 | COc1cc(N2CCNCC2)c2cn(C)nc2c1C(=O)Nc1cc(F)c2nc(C)cn2c1 [Compound 250, N-(8-fluoro-2-methyl-imidazo[1,2-a]pyridin-6-yl)-6-methoxy-2-methyl-4-piperazin-1-yl-indazole-7-carboxamide] | > 10000 nM | > 10000 nM | > 10000 nM | > 10000 nM | > 10000 nM | > 10000 nM | 1000 to 10000 nM | 1000 to 10000 nM | > 10000 nM
5 | Cc1cn2cc(NC(=O)c3ccc(N4CCNCC4=O)c4cn(C)nc34)cc(F)c2n1 [Compound 251, N-(8-fluoro-2-methylimidazo[1,2-a]-pyridin-6-yl)-2-methyl-4-(2-oxopiperazin-1-yl)-2H-indazole-7-carboxamide 2,2,2-trifluoroacetate] | > 10000 nM | > 10000 nM | > 10000 nM | > 10000 nM | > 10000 nM | > 10000 nM | > 10000 nM | > 10000 nM | > 10000 nM
6 | Cc1cn2cc(NC(=O)c3ccc(N4CCC(NC5CC5C)CC4)c4cn(C)nc34)cc(F)c2n1 (stereo not drawn) [Compound 204, N-(8-fluoro-2-methyl-imidazo[1,2-a]pyridin-6-yl)-2-methyl-4-[4-[(2-methyl-cyclopropyl)amino]-1-piperidyl] indazole-7-carboxamide] | < 100 nM | < 100 nM | 100 to 1000 nM | 100 to 1000 nM | 100 to 1000 nM | 100 to 1000 nM | < 100 nM | < 100 nM | 100 to 1000 nM
7 | CCNC1CCN(c2ccc(C(=O)Nc3cc(F)c4nc(C)cn4c3)c3nn(C)nc23)CC1 [Compound 196, 7-[4-(ethylamino)piperidin-1-yl]-N-(8-fluoro-2-methyl-imidazo[1,2-a]pyridin-6-yl)-2-methyl-1,2,3-benzotriazole-4-carboxamide] | 100 to 1000 nM | 100 to 1000 nM | 100 to 1000 nM | 100 to 1000 nM | 100 to 1000 nM | 100 to 1000 nM | 100 to 1000 nM | 100 to 1000 nM | 1000 to 10000 nM
8 | CNC1(C)CCN(c2cc(F)c(C(=O)Nc3cc(F)c4nc(C)cn4c3)c3nn(C)cc23)CC1 [Compound 179, 6-fluoro-N-(8-fluoro-2-methyl-imidazo[1,2-a]pyridin-6-yl)-2-methyl-4-[4-methyl-4-(methylamino)-1-piperidyl]indazole-7-carboxamide] | < 100 nM | < 100 nM | < 100 nM | < 100 nM | < 100 nM | < 100 nM | < 100 nM | < 100 nM | < 100 nM
9 | Cc1cn2nc(C(=O)Nc3ccc(N4C[C@@H](C)N[C@@H](C)C4)c4cc[nH]c34)cc(C)c2n1 [Compound 237, N-(4-[(3R,5S)-3,5-dimethylpiperazin-1-yl]-1H-indol-7-yl)-2,8-dimethylimidazo[1,2-b]pyridazine-6-carboxamide] | 1000 to 10000 nM | 1000 to 10000 nM | 1000 to 10000 nM | 1000 to 10000 nM | 1000 to 10000 nM | 1000 to 10000 nM | 1000 to 10000 nM | 1000 to 10000 nM | 1000 to 10000 nM
10 | CN[C@H]1CCN(c2ccc(C(=O)Nc3cc(F)c4nc(C)cn4c3)c3c2nnn3C)C1 [Compound 160, N-(8-fluoro-2-methyl-imidazo[1,2-a]pyridin-6-yl)-3-methyl-7-[(3S)-3-(methylamino)-pyrrolidin-1-yl]benzotriazole-4-carboxamide] | > 10000 nM | > 10000 nM | > 10000 nM | > 10000 nM | > 10000 nM | > 10000 nM | > 10000 nM | > 10000 nM | > 10000 nM
11 | CN[C@@H]1CCN(c2ccc(C(=O)Nc3cc(F)c4nc(C)cn4c3)c3nn(C)cc23)[C@H]1C [Compound 155, N-(8-fluoro-2-methylimidazo-[1,2-a]pyridin-6-yl)-2-methyl-4-[(2S,3R)-2-methyl-3-(methylamino)-pyrrolidin-1-yl]indazole-7-carboxamide] | > 10000 nM | 1000 to 10000 nM | > 10000 nM | > 10000 nM | > 10000 nM | > 10000 nM | 1000 to 10000 nM | > 10000 nM | 100 to 1000 nM
12 | CCNC1CCN(c2ccc(C(=O)Nc3cn4cc(C)nc(C)c4n3)c3nn(C)cc23)CC1 [Compound 181, N-(6,8-dimethylimidazo [1,2-a]pyrazin-2-yl)-4-[4-(ethylamino)-1-piperidyl]-2-methyl-indazole-7-carboxamide] | 100 to 1000 nM | 100 to 1000 nM | 100 to 1000 nM | 100 to 1000 nM | 1000 to 10000 nM | 1000 to 10000 nM | 100 to 1000 nM | 100 to 1000 nM | 100 to 1000 nM
